Reference: PubChem BioAssay AID1918930 (Molecular Pharmacology Branch, DTP, NCI, 2023)

System: 233499-124-R-J3-PDC complex spheroid viability, % test/control
Test: Anticancer human tumor 233499-124-R-J3-PDC patient-derived colon adenocarcinoma cell line growth inhibition
Conditions: for IC50: curve of first compound; for viability, T/C: stronger effect = lower value
Method in brief: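 Drug combinations with the LSD1 inhibitor iadademstat tested on tumor cells co-cultured as spheroids with endothelial cells and mesenchymal stem cells. Concentrations descended in half-log increments from clinical Cmax or 10 microM.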

[1] = second compound 0.1 µM, first compound 0.0316 µM
[2] = second compound 0.1 µM, first compound 0.1 µM
[3] = second compound 0.1 µM, first compound 0.316 µM
[4] = second compound 0.1 µM, first compound 1 µM
[5] = second compound 0.316 µM, first compound 0.0316 µM
[6] = second compound 0.316 µM, first compound 0.1 µM
[7] = second compound 0.316 µM, first compound 0.316 µM
[8] = second compound 0.316 µM, first compound 1 µM
[9] = second compound 1 µM, first compound 0.0316 µM
[10] = second compound 1 µM, first compound 0.1 µM
[11] = second compound 1 µM, first compound 0.316 µM
[12] = second compound 1 µM, first compound 1 µM
[13] = second compound 3.16 µM, first compound 0.0316 µM
[14] = second compound 3.16 µM, first compound 0.1 µM
[15] = second compound 3.16 µM, first compound 0.316 µM
[16] = second compound 3.16 µM, first compound 1 µM
[17] = second compound 10 µM, first compound 0.0316 µM
[18] = second compound 10 µM, first compound 0.1 µM
[19] = second compound 10 µM, first compound 0.316 µM
[20] = second compound 10 µM, first compound 1 µM
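Also: spheroids exposed to agents for one week before readout.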

Molecule `O=C(C=Cn1cnc(-c2cc(C(F)(F)F)cc(C(F)(F)F)c2)n1)NNc1cnccn1` + NC1CC1c1ccc(-c2cccc(O)c2)cc1 has an IC50 (second compound 0.1 µM) of 821 nM, an IC50 (second compound 0.316 µM) of 669 nM and an IC50 (second compound 1 µM) of 805 nM. It also gave an IC50 (second compound 3.16 µM) of 920 nM, an IC50 (second compound 10 µM) of 557 nM and a viability, T/C (second compound 0.1 µM, first compound 0.00316 µM) of 102%. For the same molecule, the viability, T/C (second compound 0.1 µM, first compound 0.01 µM) was 83.9%, the viability, T/C [1] was 95.7% and the viability, T/C [2] was 101%. The viability, T/C [3] was 77.6%, the viability, T/C [4] was 44.3% and the viability, T/C (second compound 0.316 µM, first compound 0.00316 µM) was 91.8%. It also gave a viability, T/C (second compound 0.316 µM, first compound 0.01 µM) of 104%, a viability, T/C [5] of 97.2% and a viability, T/C [6] of 81.2%. It also gave a viability, T/C [7] of 73.5%, a viability, T/C [8] of 38.2% and a viability, T/C (second compound 1 µM, first compound 0.00316 µM) of 67.3%. For the same molecule, the viability, T/C (second compound 1 µM, first compound 0.01 µM) was 78.9%, the viability, T/C [9] was 90.9% and the viability, T/C [10] was 101%. For the same molecule, the viability, T/C [11] was 67.3%, the viability, T/C [12] was 46% and the viability, T/C (second compound 3.16 µM, first compound 0.00316 µM) was 84.1%. It also gave a viability, T/C (second compound 3.16 µM, first compound 0.01 µM) of 102%, a viability, T/C [13] of 83.5% and a viability, T/C [14] of 94.3%. The viability, T/C [15] was 72.5%, the viability, T/C [16] was 48.2% and the viability, T/C (second compound 10 µM, first compound 0.00316 µM) was 73.5%. It also gave a viability, T/C (second compound 10 µM, first compound 0.01 µM) of 83.1%, a viability, T/C [17] of 78.2% and a viability, T/C [18] of 81.9%. It also gave a viability, T/C [19] of 61.7% and a viability, T/C [20] of 38%.

`COc1ccc([C@@H](O)c2cc(-c3ncnc4cc(N5CCOCC5)ccc34)c(F)cc2Cl)nn1` + NC1CC1c1ccc(-c2cccc(O)c2)cc1 showed an IC50 (second compound 0.1 µM) of 5190 nM, an IC50 (second compound 0.316 µM) of 6670 nM and an IC50 (second compound 1 µM) of 5490 nM. It also gave an IC50 (second compound 3.16 µM) of 3620 nM, an IC50 (second compound 10 µM) of 1710 nM and a viability, T/C [1] of 97.3%. For the same molecule, the viability, T/C [2] was 93.4%, the viability, T/C [3] was 95.7% and the viability, T/C [4] was 71.5%. The viability, T/C (second compound 0.1 µM, first compound 3.16 µM) was 63%, the viability, T/C (second compound 0.1 µM, first compound 10 µM) was 36.3% and the viability, T/C [5] was 93.3%. The viability, T/C [6] was 98.3%, the viability, T/C [7] was 95.5% and the viability, T/C [8] was 78.6%. It also gave a viability, T/C (second compound 0.316 µM, first compound 3.16 µM) of 78.5%, a viability, T/C (second compound 0.316 µM, first compound 10 µM) of 36.1% and a viability, T/C [9] of 91.4%. It also gave a viability, T/C [10] of 80.4%, a viability, T/C [11] of 79.1% and a viability, T/C [12] of 62%. For the same molecule, the viability, T/C (second compound 1 µM, first compound 3.16 µM) was 63.1%, the viability, T/C (second compound 1 µM, first compound 10 µM) was 40.1% and the viability, T/C [13] was 92.1%. The viability, T/C [14] was 95.8%, the viability, T/C [15] was 75.9% and the viability, T/C [16] was 67.3%. It also gave a viability, T/C (second compound 3.16 µM, first compound 3.16 µM) of 57.7%, a viability, T/C (second compound 3.16 µM, first compound 10 µM) of 26.9% and a viability, T/C [17] of 69.5%. The viability, T/C [18] was 80.2%, the viability, T/C [19] was 57.7% and the viability, T/C [20] was 49.7%. It also gave a viability, T/C (second compound 10 µM, first compound 3.16 µM) of 51.2% and a viability, T/C (second compound 10 µM, first compound 10 µM) of 21.5%.

Work on `Nc1ccn(C2OC(CO)C(O)C2(F)F)c(=O)n1` (stereo not given) + NC1CCC(NC2CC2c2ccccc2)CC1 yielded an IC50 (second compound 0.1 µM) of 2.48 nM, an IC50 (second compound 0.316 µM) of 4.47 nM and an IC50 (second compound 1 µM) of 6.13 nM. The IC50 (second compound 3.16 µM) was 1.07 nM, the IC50 (second compound 10 µM) was < 0.949 nM and the viability, T/C (second compound 0.1 µM, first compound 0.000949 µM) was 100%. For the same molecule, the viability, T/C (second compound 0.1 µM, first compound 0.003 µM) was 35.6%, the viability, T/C (second compound 0.1 µM, first compound 0.00949 µM) was 43.9% and the viability, T/C (second compound 0.1 µM, first compound 0.03 µM) was 21.9%. It also gave a viability, T/C (second compound 0.1 µM, first compound 0.0949 µM) of 30.3%, a viability, T/C (second compound 0.1 µM, first compound 0.3 µM) of 21.1% and a viability, T/C (second compound 0.316 µM, first compound 0.000949 µM) of 99.4%. For the same molecule, the viability, T/C (second compound 0.316 µM, first compound 0.003 µM) was 58.8%, the viability, T/C (second compound 0.316 µM, first compound 0.00949 µM) was 22.2% and the viability, T/C (second compound 0.316 µM, first compound 0.03 µM) was 32.3%. It also gave a viability, T/C (second compound 0.316 µM, first compound 0.0949 µM) of 37.9%, a viability, T/C (second compound 0.316 µM, first compound 0.3 µM) of 41.5% and a viability, T/C (second compound 1 µM, first compound 0.000949 µM) of 88.7%. For the same molecule, the viability, T/C (second compound 1 µM, first compound 0.003 µM) was 62.1%, the viability, T/C (second compound 1 µM, first compound 0.00949 µM) was 44.4% and the viability, T/C (second compound 1 µM, first compound 0.03 µM) was 31.1%. The viability, T/C (second compound 1 µM, first compound 0.0949 µM) was 26.6%, the viability, T/C (second compound 1 µM, first compound 0.3 µM) was 35.1% and the viability, T/C (second compound 3.16 µM, first compound 0.000949 µM) was 51.4%. For the same molecule, the viability, T/C (second compound 3.16 µM, first compound 0.003 µM) was 40.9%, the viability, T/C (second compound 3.16 µM, first compound 0.00949 µM) was 36.9% and the viability, T/C (second compound 3.16 µM, first compound 0.03 µM) was 47.2%. The viability, T/C (second compound 3.16 µM, first compound 0.0949 µM) was 18.9%, the viability, T/C (second compound 3.16 µM, first compound 0.3 µM) was 39.5% and the viability, T/C (second compound 10 µM, first compound 0.000949 µM) was 59.2%. The viability, T/C (second compound 10 µM, first compound 0.003 µM) was 29.7%, the viability, T/C (second compound 10 µM, first compound 0.00949 µM) was 29.2% and the viability, T/C (second compound 10 µM, first compound 0.03 µM) was 34.9%. The viability, T/C (second compound 10 µM, first compound 0.0949 µM) was 27.3% and the viability, T/C (second compound 10 µM, first compound 0.3 µM) was 37%.
